Laboratory results published in ChEMBL document CHEMBL1130430, “Assessment of solvation effects on calculated binding affinity differences: trypsin inhibition by flavonoids as a model system for congeneric series” (J Med Chem, 1997).

Experiments:
[1] = biological target: T1, Serine protease 1 (Bos taurus, UniProt P00760); experiment: Inhibitory concentration of the compounds against Bovine trypsin enzyme.
T1 sequence (P00760 whole entry): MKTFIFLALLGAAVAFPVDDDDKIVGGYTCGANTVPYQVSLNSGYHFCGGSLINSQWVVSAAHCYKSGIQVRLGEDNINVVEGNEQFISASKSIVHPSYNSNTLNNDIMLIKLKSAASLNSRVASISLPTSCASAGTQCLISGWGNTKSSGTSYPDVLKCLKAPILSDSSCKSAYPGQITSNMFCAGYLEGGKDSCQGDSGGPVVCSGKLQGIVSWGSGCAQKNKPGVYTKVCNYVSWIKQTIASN

[2] = Disassociation constant (KI) was obtained from Cheng and Prusoff equation for quercetin trypsin complex

SMILES	IC50 [1] [µM]	Ki [2] [µM]
O=c1cc(-c2ccc(O)cc2)oc2cc(O)cc(O)c12 [APIGENIN]	142	39.5
O=c1c(O)c(-c2ccc(O)cc2)oc2cc(O)cc(O)c12 [KAEMPFEROL]	106	29.5
O=c1cc(-c2ccc(O)c(O)c2)oc2cc(O)cc(O)c12 [LUTEOLIN]	35.3	9.84
O=c1c(O)c(-c2ccc(O)cc2O)oc2cc(O)cc(O)c12 [MORIN]	111	30.9
O=c1c(O)c(-c2cc(O)c(O)c(O)c2)oc2cc(O)cc(O)c12 [MYRICETIN]	10.2	2.84
O=c1c(O)c(-c2ccc(O)c(O)c2)oc2cc(O)cc(O)c12 [QUERCETIN]	–	1.98
COc1cc([C@@H]2Oc3c(O)cc([C@H]4Oc5cc(O)cc(O)c5C(=O)[C@@H]4O)cc3[C@H]2CO)ccc1O [SILICRISTIN]	144	40.3
